Laboratory results: patent US7491794B2, “Macrocyclic compounds as inhibitors of viral replication” (Intermune, Inc., priority 2003, dated 2009)
Where a name gives a salt, the structure may show the parent alone.

Experiments:
[1] = tested on: HCV sub-genomic replicon, GS4.3; assay: Quantitation by ELISA of NPTII in the HCV sub-genomic replicon, GS4.3, Section B; type: cell-based; conditions: Hepatitis C virus; GS4.3 cells, 72 h incubation; read-out: Replicon EC50
From the text: Quantitation by ELISA of the Selectable Marker Protein, Neomycin Phosphotransferase II (NPTII) in the HCV Sub-Genomic Replicon, GS4.3
The HCV sub-genomic replicon (1377/NS3-3′, accession No. AJ242652), stably maintained in HuH-7 hepatoma cells, was created by Lohmann et al. Science 285: 110-113 (1999). The replicon-containing cell culture, designated GS4.3, was obtained from Dr. Christoph Seeger of the Institute for Cancer Research, Fox Chase Cancer Center, Philadelphia, Pa.
GS4.3 cells were maintained at 37° C., 5% CO2, in DMEM (Gibco 11965-092) supplemented with L-glutamine 200 mM (100×) (Gibco25030-081), non-essential amino acids (NEAA)(Biowhittaker 13-114E), heat-inactivated (HI) Fetal Bovine Serum(FBS)(Hyclone SH3007.03) and 750 μg/ml geneticin (G418)(Gibco 10131-035). Cells were sub-divided 1:3 or 4 every 2-3 days.
24 hours prior to the assay, GS4.3 cells were collected, counted, and plated in 96-well plates (Costar 3585) at 7500 cells/well in 100 μl standard maintenance medium (above) and incubated in the conditions above. To initiate the assay, culture medium was removed, cells were washed once with PBS (Gibco 10010-023) and 90 μl Assay Medium (DMEM, L-glutamine, NEAA, 10% HI FBS, no G418) was added. Inhibitors were made as a 10× stock in Assay Medium, (3-fold dilutions from 10 μM to […] final concentration, final DMSO concentration 1%), 10 μl were added to duplicate wells, plates were rocked to mix, and incubated as above for 72 h.
An NPTII ELISA kit was obtained from AGDIA, Inc. (Compound direct ELISA test system for Neomycin Phosphotransferase II, PSP 73000/4800). Manufacturer's instructions were followed, with some modifications. 10×PEB-1 lysis buffer was made up to include 500 μM PMSF (Sigma P7626, 50 mM stock in isopropanol). After 72 h incubation, cells were washed once with PBS and 150 μl PEB-1 with PMSF was added per well. Plates were agitated vigorously for 15 minutes, room temperature, then frozen at −70° C. Plates were thawed, lysates were mixed thoroughly, and 100 μl were applied to an NPTII Elisa plate. A standard curve was made. Lysate from DMSO-treated control cells was pooled, serially diluted with PEB-1 with PMSF, and applied to duplicate wells of the ELISA plate, in a range of initial lysate amount of 150u1-2.5 ul. In addition, 100 μl buffer alone was applied in duplicate as a blank. Plates were sealed and gently agitated at room temperature for 2 h. Following capture incubation, the plates were washed 5×300 μl with PBS-T (0.5% Tween-20, PBS-T was supplied in the ELISA kit). For detection, a 1× dilution of enzyme conjugate diluent MRS-2 (5×) was made in PBS-T, into which 1:100 dilutions of enzyme conjugates A and B were added, as per instructions. Plates were resealed, and incubated with agitation, covered, room temperature, for 2 h. The washing was then repeated and 100 μl of room temperature TMB substrate was added. After approximately 30 minutes incubation (room temperature, agitation, covered), the reaction was stopped with 50 μl 3M sulfuric acid. Plates were read at 450 nm on a Molecular Devices Versamax plate reader.
Inhibitor effect was expressed as a percentage of DMSO-treated control signal, and inhibition curves were calculated using a 4-parameter equation: y=A+((B−A)/(1+((C/x)^D))), where C is half-maximal activity or EC50.

NS3-NS4A protease = molecular target: T1, NS3-NS4A protease (Hepatitis C virus genotype 1a, UniProt P27958); assay: NS3-NS4A protease assay (NS3 inhibition assay, RETS1 substrate), Section B; type: biochemical; conditions: read-out: NS3-NS4A IC50
T1 construct: Recombinant E. coli or Baculovirus full-length NS3 was diluted to 3.33 μM with assay buffer; made in house; host or cells: E. coli or baculovirus (BV) system
Protocol: NS3 complex formation with NS4A-2
Recombinant E. coli or Baculovirus full-length NS3 was diluted to 3.33 μM with assay buffer and the material transferred to an eppendorf tube and place in water bath in 4° C. refrigerator. The appropriate amount of NS4A-2 to 8.3 mM in assay buffer was added to equal the volume of NS3 in step 2.1.1 (conversion factor −3.8 mg/272 μL assay buffer). The material was transferred to an eppendorf tube and placed in a water bath in a 4° C. refrigerator.
After equilibration to 4° C., equal volumes of NS3 and NS4A-2 solutions were combined in an eppendorf tube, mixed gently with a manual pipettor, and the mixture incubated for 15 minutes in the 4° C. water bath. Final concentrations in the mixture were 1.67 μM NS3, 4.15 mM NS4A-2 (2485-fold molar excess NS4A-2).
After 15 minutes at 4° C., the NS3/NS4A-2 eppendorf tube was removed and placed in a room temperature water bath for 10 minutes. NS3/NS4A-2 was aliquoted at appropriate volumes and store at −80° C. (E. coli NS3 run at 2 nM in assay, aliquot at 25 μL. BV NS3 run at 3 nM in assay, aliquot at 30 μL.
Step 2.2.5. Sample compounds were dissolved to 10 mM in DMSO then diluted to 2.5 mM (1:4) in DMSO.
Step 2.2.6. The E. coli NS3/NS4A-2 was diluted to 4 nM NS3 (1:417.5 of 1.67 μM stock−18 μL 1.67 μM stock+7497 μL assay buffer).
The BV NS3/NS4A-2 was diluted to 6 nM NS3 (1:278.3 of 1.67 μM stock−24 μL 1.67 μM stock+6655 μL assay buffer).
Step 2.2.7. Using the manual multichannel pipettor, and being careful not to introduce bubbles into the plate, 50 μL assay buffer was added to wells A01-H01 of a black Costar 96-well polypropylene storage plate.
Step 2.2.8. Using the manual multichannel pipettor, and being careful not to introduce bubbles into the plate, 50 μL of diluted NS3/NS4A-2 from step 2.2.6 was added to wells A02-H12 of plate in step 2.2.7.
Step 2.2.9. Using the manual multichannel pipettor, and being careful not to introduce bubbles into the plate, 25 μL of the wells in drug dilution plate in step 2.2.5 were transferred to corresponding wells in assay plate in step 2.2.8. The tips on multichannel pipettor were changed for each row of compounds transferred.
Step 2.2.10. Using the manual multichannel pipettor, and being careful not to introduce bubbles into the plate, the wells from the assay plate in step 2.2.9 were mixed by aspirating and dispensing 35 μL of the 75 μL in each well five times. The tips on multichannel pipettor were changed for each row of wells mixed.
Step 2.2.11. The plate was covered with a polystyrene plate lid, and the plate from step 2.2.10 containing NS3 protease and sample compounds was pre-incubated 10 minutes at room temperature.
While the plate from step 2.2.11 was pre-incubating, the RETS1 substrate was diluted in a 15 mL polypropylene centrifuge tube. The RETS1 substrate was diluted to 8 μM (1:80.75 of 646 μM stock−65 μL 646 μM stock+5184 μL assay buffer).
After the plate in step 2.2.11 was done pre-incubating, and using the manual multichannel, 25 μL of substrate was added to all wells on the plate. The contents of the wells were quickly mixed, as in step 2.2.10, but mixing 65 μL of the 100 μL in the wells.
The plate was read in kinetic mode on the Molecular Devices SpectraMax Gemini XS plate reader. Reader settings: Read time: 30 minutes, Interval: 36 seconds, Reads: 51, Excitation λ: 335 nm, Emission λ: 495 nm, cutoff: 475 nm, Automix: off, Calibrate: once, PMT: high, Reads/well: 6, Vmax pts: 21 or 28/51 depending on length of linearity of reaction.
IC50s were determined using a four parameter curve fit equation, and converted to Ki's using the following Km's:
where Ki=IC50/(1+[S]/Km))

T1 sequence (P27958 1027-1657): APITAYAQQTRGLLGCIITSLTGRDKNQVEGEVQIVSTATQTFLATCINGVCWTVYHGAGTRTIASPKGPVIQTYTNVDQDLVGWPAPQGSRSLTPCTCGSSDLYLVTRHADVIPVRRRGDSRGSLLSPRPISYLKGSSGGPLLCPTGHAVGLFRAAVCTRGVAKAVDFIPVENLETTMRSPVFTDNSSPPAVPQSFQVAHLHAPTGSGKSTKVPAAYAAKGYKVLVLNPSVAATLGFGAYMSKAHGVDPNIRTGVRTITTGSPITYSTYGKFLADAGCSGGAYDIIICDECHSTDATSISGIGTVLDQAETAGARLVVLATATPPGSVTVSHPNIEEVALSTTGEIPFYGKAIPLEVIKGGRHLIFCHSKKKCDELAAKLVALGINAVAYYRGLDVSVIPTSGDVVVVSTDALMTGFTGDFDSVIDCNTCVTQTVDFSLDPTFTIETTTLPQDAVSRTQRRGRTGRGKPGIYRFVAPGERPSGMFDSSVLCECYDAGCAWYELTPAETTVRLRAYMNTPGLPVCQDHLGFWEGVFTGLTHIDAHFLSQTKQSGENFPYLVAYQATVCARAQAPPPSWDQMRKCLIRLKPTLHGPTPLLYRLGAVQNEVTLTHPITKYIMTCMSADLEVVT

Structure (SMILES) | EC50 [1] | IC50 (NS3-NS4A protease)
O=C(N[C@H]1CCCCCCCC2C[C@@]2(C(=O)NS(=O)(=O)C2CC2)NC(=O)[C@@H]2C[C@@H](OC(=O)N3CCc4ccccc4C3)CN2C1=O)OC1CCCC1 (stereo in doubt) [AR00324375, (1S,4R,6S,14S,18R)-3,4-Dihydro-1H-isoquinoline-2-carboxylic acid 14-cyclopentyloxycarbonylamino-4-cyclopropanesulfonylaminocarbonyl-2,15-dioxo-3,16-diaza-tricyclo[14.3.0.0^4,6]nonadec-18-yl ester] | < 1000 nM | < 1000 nM
CC(C)(C)OC(=O)N[C@H]1CCCCCCCC2C[C@@]2(C(=O)NS(=O)(=O)C2CC2)NC(=O)[C@@H]2C[C@@H](OC(=O)N3Cc4ccccc4C3)CN2C1=O (stereo in doubt) [AR00333833, (1S,4R,6S,14S,18R)-1,3-Dihydro-isoindole-2-carboxylic acid 14-tert-butoxycarbonylamino-4-cyclopropanesulfonylaminocarbonyl-2,15-dioxo-3,16-diaza-tricyclo[14.3.0.0^4,6]nonadec-18-yl ester] | < 100 nM | < 100 nM
CC(C)(C)OC(=O)N[C@H]1CCCCC/C=C\[C@@H]2C[C@@]2(C(=O)O)NC(=O)[C@@H]2C[C@@H](OC(=O)N3CCc4ccccc4C3)CN2C1=O [AR00220042, (1S,4R,6S,14S,18R)-14-tert-Butoxycarbonylamino-18-(3,4-dihydro-1H-isoquinoline-2-carbonyloxy)-2,15-dioxo-3,16-diaza-tricyclo[14.3.0.0^4,6]nonadec-7-ene-4-carboxylic acid] | < 10000 nM | < 1000 nM
COc1ccc(S(=O)(=O)NC(=O)[C@@]23C[C@H]2/C=C\CCCCC[C@H](NC(=O)OC(C)(C)C)C(=O)N2C[C@H](OC(=O)N4Cc5ccccc5C4)C[C@H]2C(=O)N3)cc1C(=O)O [AR00365425, (1S,4R,6S,14S,18R)-1,3-Dihydro-isoindole-2-carboxylic acid 14-tert-butoxycarbonylamino-4-(3-carboxy-4-methoxy-benzenesulfonylaminocarbonyl)-2,15-dioxo-3,16-diaza-tricyclo[14.3.0.0^4,6]nonadec-7-en-18-yl ester] | – | < 100 nM
CC(C)(C)OC(=O)N[C@H]1CCCCC/C=C\[C@@H]2C[C@@]2(C(=O)O)NC(=O)[C@@H]2C[C@@H](OC(=O)N3Cc4ccc(OCCN5CCOCC5)cc4C3)CN2C1=O [AR00371946, (1S,4R,6S,14S,18R)-14-tert-Butoxycarbonylamino-18-[5-(2-morpholin-4-yl-ethoxy)-1,3-dihydro-isoindole-2-carbonyloxy]-2,15-dioxo-3,16-diaza-tricyclo[14.3.0.0^4,6]nonadec-7-ene-4-carboxylic acid] | – | < 100 nM
CN(C)CCOc1ccc2c(c1)CN(C(=O)O[C@@H]1C[C@H]3C(=O)N[C@]4(C(=O)O)C[C@H]4/C=C\CCCCC[C@H](NC(=O)OC(C)(C)C)C(=O)N3C1)C2 [AR00371947, (1S,4R,6S,14S,18R)-14-tert-Butoxycarbonylamino-18-[5-(2-dimethylamino-ethoxy)-1,3-dihydro-isoindole-2-carbonyloxy]-2,15-dioxo-3,16-diaza-tricyclo[14.3.0.0^4,6]nonadec-7-ene-4-carboxylic acid] | – | < 1000 nM
CC(C)NCCOc1ccc2c(c1)CN(C(=O)O[C@@H]1C[C@H]3C(=O)N[C@]4(C(=O)O)C[C@H]4/C=C\CCCCC[C@H](NC(=O)OC(C)(C)C)C(=O)N3C1)C2 [AR00371948, (1S,4R,6S,14S,18R)-14-tert-Butoxycarbonylamino-18-[5-(2-isopropylamino-ethoxy)-1,3-dihydro-isoindole-2-carbonyloxy]-2,15-dioxo-3,16-diaza-tricyclo[14.3.0.0^4,6]nonadec-7-ene-4-carboxylic acid] | – | < 100 nM
COCC1c2cccc(F)c2CCN1C(=O)O[C@@H]1C[C@H]2C(=O)N[C@]3(C(=O)NS(=O)(=O)C4CC4)C[C@H]3/C=C\CCCCC[C@H](N)C(=O)N2C1 (stereo partly drawn) [AR00424775, (1S,4R,6S,14S,18R)-5-Fluoro-1-methoxymethyl-3,4-dihydro-1H-isoquinoline-2-carboxylic acid 14-amino-4-cyclopropanesulfonylaminocarbonyl-2,15-dioxo-3,16-diaza-tricyclo[14.3.0.0^4,6]nonadec-7-en-18-yl ester, HCl salt] | – | < 100 nM
N[C@H]1CCCCC/C=C\[C@@H]2C[C@@]2(C(=O)NS(=O)(=O)C2CC2)NC(=O)[C@@H]2C[C@@H](OC(=O)N3Cc4cccc(F)c4C3)CN2C1=O [AR00424874, (1S,4R,6S,14S,18R)-4-Fluoro-1,3-dihydro-isoindole-2-carboxylic acid 14-amino-4-cyclopropanesulfonylaminocarbonyl-2,15-dioxo-3,16-diaza-tricyclo[14.3.0.0^4,6]nonadec-7-en-18-yl ester, HC1 salt] | – | < 100 nM
